Laboratory results reported in the supplement of paper PMC10307832.

Key:
Experiment in all cases: relative viability (nuclei count vs DMSO), 5 days (fraction); higher = more cells survive
A-427 = system: A-427
In short: (§1)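 Relative viability equals treated-well nuclei counts divided by vehicle-well nuclei counts. Counts came from 4× images of lung cancer cell lines grown in 1536-well plates for 5 days after pin-tool dosing on the day after seeding. Dosing used one drug alone or a fixed anchor-drug dose plus five library-drug doses (not always all listed) in √10 steps, and values are medians of duplicate plates.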

COR-L 105 = system: COR-L 105
In short: as §1

EPLC-272H = system: EPLC-272H
In short: as §1

HCC-366 = system: HCC-366
In short: as §1

HCC-78 = system: HCC-78
In short: as §1

HOP-62 = system: HOP-62
In short: as §1

LC-2-ad = system: LC-2-ad
In short: as §1

LCLC-97TM1 = system: LCLC-97TM1
In short: as §1

LU99A = system: LU99A
In short: as §1

LXF-289 = system: LXF-289
In short: as §1

NCI-H1755 = system: NCI-H1755
In short: as §1

NCI-H1792 = system: NCI-H1792
In short: as §1

NCI-H1793 = system: NCI-H1793
In short: as §1

NCI-H1915 = system: NCI-H1915
In short: as §1

NCI-H1944 = system: NCI-H1944
In short: as §1

NCI-H1975 = system: NCI-H1975
In short: as §1

NCI-H2085 = system: NCI-H2085
In short: as §1

NCI-H2170 = system: NCI-H2170
In short: as §1

NCI-H358 = system: NCI-H358
In short: as §1

NCI-H460 = system: NCI-H460
In short: as §1

SK-LU-1 = system: SK-LU-1
In short: as §1

SW 900 = system: SW 900
In short: as §1

UMC-11 = system: UMC-11
In short: as §1

SMILES: CC1(C)CCC(c2ccc(Cl)cc2)=C(CN2CCN(c3ccc(C(=O)NS(=O)(=O)c4ccc(N[C@H](CCN5CCOCC5)CSc5ccccc5)c(S(=O)(=O)C(F)(F)F)c4)cc3)CC2)C1 [Navitoclax] + CC(=O)Nc1cccc(-n2c(=O)n(C3CC3)c(=O)c3c(Nc4ccc(I)cc4F)n(C)c(=O)c(C)c32)c1 [Trametinib] (partner 0.02 µM)
- relative viability (A-427; first compound 0.005 µM): 0.724
- relative viability (A-427; first compound 0.01581 µM): 0.714
- relative viability (A-427; first compound 0.05 µM): 0.624
- relative viability (A-427; first compound 0.1581 µM): 0.599
- relative viability (A-427; first compound 0.5 µM): 0.652
- relative viability (COR-L 105; first compound 0.005 µM): 0.441
- relative viability (COR-L 105; first compound 0.01581 µM): 0.476
- relative viability (COR-L 105; first compound 0.05 µM): 0.428
- relative viability (COR-L 105; first compound 0.1581 µM): 0.447
- relative viability (COR-L 105; first compound 0.5 µM): 0.379
- relative viability (EPLC-272H; first compound 0.005 µM): 0.239
- relative viability (EPLC-272H; first compound 0.05 µM): 0.272
- relative viability (EPLC-272H; first compound 0.1581 µM): 0.298
- relative viability (EPLC-272H; first compound 0.5 µM): 0.277
- relative viability (HCC-366; first compound 0.005 µM): 0.319
- relative viability (HCC-366; first compound 0.01581 µM): 0.419
- relative viability (HCC-366; first compound 0.1581 µM): 0.351
- relative viability (HCC-366; first compound 0.5 µM): 0.288
- relative viability (HCC-78; first compound 0.005 µM): 0.653
- relative viability (HCC-78; first compound 0.01581 µM): 0.826
- relative viability (HCC-78; first compound 0.05 µM): 0.59
- relative viability (HCC-78; first compound 0.1581 µM): 0.727
- relative viability (HCC-78; first compound 0.5 µM): 0.727
- relative viability (HOP-62; first compound 0.005 µM): 0.377
- relative viability (HOP-62; first compound 0.01581 µM): 0.404
- relative viability (HOP-62; first compound 0.05 µM): 0.362
- relative viability (HOP-62; first compound 0.1581 µM): 0.365
- relative viability (HOP-62; first compound 0.5 µM): 0.39
- relative viability (LC-2-ad; first compound 0.005 µM): 0.861
- relative viability (LC-2-ad; first compound 0.01581 µM): 0.906
- relative viability (LC-2-ad; first compound 0.05 µM): 0.813
- relative viability (LC-2-ad; first compound 0.1581 µM): 0.902
- relative viability (LC-2-ad; first compound 0.5 µM): 0.823
- relative viability (LCLC-97TM1; first compound 0.005 µM): 0.184
- relative viability (LCLC-97TM1; first compound 0.01581 µM): 0.232
- relative viability (LCLC-97TM1; first compound 0.05 µM): 0.186
- relative viability (LCLC-97TM1; first compound 0.1581 µM): 0.211
- relative viability (LCLC-97TM1; first compound 0.5 µM): 0.189
- relative viability (LU99A; first compound 0.005 µM): 0.527
- relative viability (LU99A; first compound 0.01581 µM): 0.597
- relative viability (LU99A; first compound 0.1581 µM): 0.572
- relative viability (LU99A; first compound 0.5 µM): 0.674
- relative viability (LXF-289; first compound 0.005 µM): 0.649
- relative viability (LXF-289; first compound 0.01581 µM): 0.709
- relative viability (LXF-289; first compound 0.05 µM): 0.633
- relative viability (LXF-289; first compound 0.1581 µM): 0.69
- relative viability (LXF-289; first compound 0.5 µM): 0.692
- relative viability (NCI-H1755; first compound 0.005 µM): 0.743
- relative viability (NCI-H1755; first compound 0.01581 µM): 0.774
- relative viability (NCI-H1755; first compound 0.05 µM): 0.662
- relative viability (NCI-H1755; first compound 0.1581 µM): 0.764
- relative viability (NCI-H1755; first compound 0.5 µM): 0.802
- relative viability (NCI-H1792; first compound 0.005 µM): 0.458
- relative viability (NCI-H1792; first compound 0.01581 µM): 0.631
- relative viability (NCI-H1792; first compound 0.1581 µM): 0.376
- relative viability (NCI-H1792; first compound 0.5 µM): 0.388
- relative viability (NCI-H1793; first compound 0.005 µM): 0.373
- relative viability (NCI-H1793; first compound 0.01581 µM): 0.439
- relative viability (NCI-H1793; first compound 0.1581 µM): 0.467
- relative viability (NCI-H1793; first compound 0.5 µM): 0.402
- relative viability (NCI-H1915; first compound 0.005 µM): 0.287
- relative viability (NCI-H1915; first compound 0.01581 µM): 0.327
- relative viability (NCI-H1915; first compound 0.05 µM): 0.297
- relative viability (NCI-H1915; first compound 0.1581 µM): 0.314
- relative viability (NCI-H1915; first compound 0.5 µM): 0.331
- relative viability (NCI-H1944; first compound 0.005 µM): 0.414
- relative viability (NCI-H1944; first compound 0.01581 µM): 0.407
- relative viability (NCI-H1944; first compound 0.1581 µM): 0.422
- relative viability (NCI-H1944; first compound 0.5 µM): 0.373
- relative viability (NCI-H1975; first compound 0.005 µM): 0.427
- relative viability (NCI-H1975; first compound 0.01581 µM): 0.409
- relative viability (NCI-H1975; first compound 0.05 µM): 0.236
- relative viability (NCI-H1975; first compound 0.1581 µM): 0.399
- relative viability (NCI-H1975; first compound 0.5 µM): 0.316
- relative viability (NCI-H2085; first compound 0.005 µM): 0.567
- relative viability (NCI-H2085; first compound 0.01581 µM): 0.645
- relative viability (NCI-H2085; first compound 0.05 µM): 0.402
- relative viability (NCI-H2085; first compound 0.1581 µM): 0.621
- relative viability (NCI-H2085; first compound 0.5 µM): 0.552
- relative viability (NCI-H2170; first compound 0.005 µM): 0.926
- relative viability (NCI-H2170; first compound 0.01581 µM): 0.984
- relative viability (NCI-H2170; first compound 0.05 µM): 0.892
- relative viability (NCI-H2170; first compound 0.1581 µM): 0.887
- relative viability (NCI-H2170; first compound 0.5 µM): 0.874
- relative viability (NCI-H358; first compound 0.005 µM): 0.131
- relative viability (NCI-H358; first compound 0.01581 µM): 0.148
- relative viability (NCI-H358; first compound 0.05 µM): 0.114
- relative viability (NCI-H358; first compound 0.1581 µM): 0.133
- relative viability (NCI-H358; first compound 0.5 µM): 0.146
- relative viability (NCI-H460; first compound 0.005 µM): 0.135
- relative viability (NCI-H460; first compound 0.01581 µM): 0.237
- relative viability (NCI-H460; first compound 0.05 µM): 0.153
- relative viability (NCI-H460; first compound 0.1581 µM): 0.188
- relative viability (NCI-H460; first compound 0.5 µM): 0.215
- relative viability (SK-LU-1; first compound 0.005 µM): 0.716
- relative viability (SK-LU-1; first compound 0.01581 µM): 0.57
- relative viability (SK-LU-1; first compound 0.05 µM): 0.296
- relative viability (SK-LU-1; first compound 0.1581 µM): 0.601
- relative viability (SK-LU-1; first compound 0.5 µM): 0.433
- relative viability (SW 900; first compound 0.005 µM): 0.706
- relative viability (SW 900; first compound 0.01581 µM): 0.981
- relative viability (SW 900; first compound 0.1581 µM): 0.828
- relative viability (SW 900; first compound 0.5 µM): 0.81
- relative viability (UMC-11; first compound 0.005 µM): 0.658
- relative viability (UMC-11; first compound 0.01581 µM): 0.703
- relative viability (UMC-11; first compound 0.05 µM): 0.483
- relative viability (UMC-11; first compound 0.1581 µM): 0.574
- relative viability (UMC-11; first compound 0.5 µM): 0.321
